{"source": "patent US20210163453A1", "about": "“DERIVATIVES OF PAPAVERINE THAT ARE EFFECTIVE HYPOXIC TUMOR RADIOSENSITIZERS” (Ohio State Innovation Foundation, priority 2018, published 2021)", "key": {"A549 cells [1]": {"system": "A549 cells", "experiment": "Seahorse OCR in A549 cells (dose response, IC50, washout)", "format": "cell-based, Human"}, "EO771 tumors [2]": {"system": "EO771 tumors", "experiment": "Pimonidazole staining, hypoxic fraction of EO771 tumors", "format": "in vivo, mice", "method": "(§1) P values were calculated against thigh muscle with two-tailed two-sample t test. FIG. 3B-3C show normalized tissue oxygenation in EO771 (b) or A549 (c) tumor-bearing mice after injection of 2 mg/kg PPV or vehicle saline (readings taken every minute, and curve is average of 5 traces). P value was analyzed by linear mixed model with autoregressive correlation structure at T=30-40 minutes. […] Values are mean area covered by pimonidazole-positive cells evaluated from 20 images per animal+−SEM. P value was calculated with two-tailed two-sample t test. […] Curves represent mean tumor volumes+−SEM. P values were calculated against XRT with two-tailed two-sample t test.\n(§2) Bar graphs represent the mean area covered by pimonidazole-positive cells evaluated from 20 images per animal+−standard error of the mean. P value was calculated against control with two-tailed two-sample t test. […] Mean volumes+−SEM. P values were calculated against XRT with two-tailed two-sample t test. *P<0.05; **P<0.01; ***P<0.001; ****P<0.0001; n.s., not significant.\nPimonidazole staining. […] […] […] The hypoxic fraction of each tumor was quantified by thresholding signal at 50% of the maximum signal on control sections. Area covered by pimonidazole-positive cells was evaluated from 20 images per animal and averaged. Error bars represent the standard deviation."}, "EO771 tumors [3]": {"system": "EO771 tumors", "experiment": "Tumor growth delay of EO771 tumors with radiation (XRT)", "format": "in vivo, mice", "conditions": "for effect of drug before radiation on tumor growth delay (words): orthotopic EO771, 2 mg/kg 30-40 minutes before 5 Gy; for enhancement of tumor growth delay over XRT alone: orthotopic EO771, 2 mg/kg before 5 Gy", "method": "as §1\nFIGS. 4A-4G show tumor growth before and after radiosensitization with PPV. FIG. 4A-4B show in vitro radiation survival assessment of A549 cell line treated with 10 μm PPV in normoxia (FIG. 4A) and anoxia (FIG. 4B). […] Values represent averaged colony counts+−standard deviation. […] Values are mean tumor volumes+−SEM. […] Values are mean tumor volumes+−SEM. FIG. 4E-4F show tumor growth delay. When tumors reached 4-fold volume increase, groups receiving no treatment or PPV only (FIG. 4E); and XRT only or PPV followed by XRT (FIG. 4F), tumor weights were compared. Values are mean tumor weights+−SEM (n=8). P values were calculated with two-tailed two-sample t test. FIG. 4G are related to FIG. 4E-4F tumor growth delay. Representative images of orthotopic EO771 tumors harvested on day 11 after treatment with XRT (top) or 2 mg/kg PPV followed by XRT (bottom). *P<0.05; **P<0.01; ***P<0.001; ****P<0.0001; n.s., not significant.\nas §2\nTumor Growth kinetics. 2×10^6 EO771 or 5×10^6 A549 cells were injected s.c. into the flanks of 6-week old female immunocompetent C57/B6 (EO771) or immunocompromised nu/nu (A549) mice. Caliper measurements of opposing diameter were used to calculate the tumor volumes. Upon reaching […], the tumors were visualized by cone beam CT and treatment plans calculated using SARRP software. X-rays were delivered with a single beam delivering 5 Gy using the Small Animal Research Radiation Platform (SARRP, Xstrahl). Tumor volumes were measured until the post treatment volume increased 3-fold. Error bars represent standard deviation.\nBoth models of transplanted tumors that were used for the oxygenation experiments of papaverine's effect on radiation response in vivo were investigated. The murine breast cancer line EO771 that is syngeneic with the BL6 strain of mice was used and transplanted it orthotopically into the mammary fat pad of immune-competent mice. Also used was the human A549 lung adenocarcinoma line that was transplanted into the flank of immune-deficient mice. The breast cancers grew to approximately 150 mm^3 and were then randomized to receive either no treatment, a single dose of either 5 Gy, or papaverine at 2 mg/kg followed 30-40 minutes later by 5 Gy."}, "MP2 ODDluc tumors": {"system": "MP2 ODDluc tumors", "experiment": "ODD-luciferase in vivo oxygen reporter (bioluminescence imaging)", "design": "species or system mice", "conditions": "MP2 ODDluc tumors, 2 and 6 hours after drug", "excerpt": "FIGS. 14A-14E summarize results obtained using ODD-luciferase as an in vivo oxygen reporter. […] (n=3-4, P<0.05).\nUse of ODD-luciferase as an in vivo oxygen reporter. We have fused the oxygen dependent degradation domain (ODD) of the HIF1a protein to the luciferase reporter protein. This fusion protein is expressed in tumor cells and is stable and reports well in hypoxia, but is destroyed by cellular machinery when cells are well oxygenated (FIG. 14A). These cells were used to grow tumors in immune-deficient mice and the animals were exposed either 95% oxygen/5% CO2 (carbogen) or medical air and the tumor bioluminescence imaged by IVIS 30 minutes post injection. Increasing oxygen breathing decreases reporter signal (FIG. 14B). These animals were then treated with either papaverine or vehicle (FIG. 14C) or SMV32 or vehicle (FIG. 14E)."}, "A549 cells [4]": {"system": "A549 cells", "experiment": "In vitro radiation survival (colony formation) of A549 cells", "format": "cell-based, Human", "method": "FIGS. 4A-4G show tumor growth before and after radiosensitization with PPV. FIG. 4A-4B show in vitro radiation survival assessment of A549 cell line treated with […] PPV in normoxia (FIG. 4A) and anoxia (FIG. 4B). Normoxic cells were irradiated in triplicates on a cell culture dish, anoxic cells were irradiated in high density suspension after sealing with mineral oil 45 minutes before radiation. Values represent averaged colony counts+−standard deviation. FIG. 4C show quantification of tumor growth delay in orthotopic EO771 tumors gown in C57B16 mice receiving either 5 Gy XRT (magenta) or 2 mg/kg PPV 35 minutes prior to 5 Gy XRT (blue) (n=3-4). Values are mean tumor volumes+−SEM. […] Values are mean tumor volumes+−SEM. FIG. 4E-4F show tumor growth delay. When tumors reached 4-fold volume increase, groups receiving no treatment or PPV only (FIG. 4E); and XRT only or PPV followed by XRT (FIG. 4F), tumor weights were compared. Values are mean tumor weights+−SEM (n=8). P values were calculated with two-tailed two-sample t test. FIG. 4G are related to FIG. 4E-4F tumor growth delay.\nA549 cells in suspension were treated with 5 μM PPV for one hour prior to radiation and plating in fresh media for colony formation post radiation. (N=2 experiments performed in triplicate). […]"}, "[5]": {"system": "A549 NDUFV1 KO NDI1 cells", "format": "cell-based, Human", "conditions": "10 μM papaverine or 1 μM rotenone"}}, "note": "Entries after “also recorded” stand apart in the source; their conditions may differ.", "data": [{"smiles": "COc1cc2ccnc(Cc3cccc4ccccc34)c2cc1OC", "note": "[SMV-32]", "values": [{"measurement": "IC50", "setting": "A549 cells [1]; Homo sapiens, A549 cells by Seahorse, n=5 replicates, read-out: mitochondrial IC50 (OCR IC50)", "value": 7.4, "unit": "µM"}, {"measurement": "tumor hypoxia by pimonidazole staining", "setting": "EO771 tumors [2]; orthotopic EO771, immune-competent mice, 2 mg per kg", "value": "decreased tumor hypoxia"}, {"measurement": "growth delay compared to radiation alone", "setting": "EO771 tumors [3]; heterotopic EO771 flank tumors, nude mice, 2 mg/kg 35 minutes prior to 5 Gy", "value": "activity that is comparable to papaverine"}, {"measurement": "ODD-luciferase reporter signal", "setting": "MP2 ODDluc tumors", "value": "significant decrease in signal"}]}, {"smiles": "COc1ccc(Cc2nccc3cc(OC)c(OC)cc23)cc1OC", "note": "[PPV, papaverine]", "values": [{"measurement": "time for OCR to return to baseline after drug removal (washout)", "setting": "A549 cells [1]; 10 μM PPV, media replaced", "value": "less than one and one"}, {"measurement": "dose needed relative to rotenone for similar OCR inhibition", "setting": "A549 cells [1]; dose response analysis, A549", "value": "100 × higher dose than rotenone"}, {"measurement": "colony survival after radiation", "setting": "A549 cells [4]; 5 μM papaverine for one hour prior to radiation", "value": "did not have any effect on colony survival; also recorded: not an inherent radiosensitizer"}, {"measurement": "surviving fraction of irradiated cells", "setting": "A549 cells [4]; 10 μM PPV, normoxia and anoxia", "value": "did not change the surviving fraction"}, {"measurement": "decrease in the hypoxic fraction of tumors", "setting": "EO771 tumors [2]; 2 mg/kg PPV for one hour, pimonidazole", "value": 72, "unit": "%"}, {"measurement": "effect of drug before radiation on tumor growth delay (words)", "setting": "EO771 tumors [3]", "value": "significantly adds to tumor growth delay"}, {"measurement": "effect of drug before radiation on tumor growth delay (words)", "setting": "EO771 tumors [3]; listed as papaverine", "value": "significantly enhanced the antitumor effects of the radiation"}, {"measurement": "enhancement of tumor growth delay over XRT alone", "setting": "EO771 tumors [3]", "value": "2-4 fold"}, {"measurement": "enhancement of tumor growth delay over XRT alone", "setting": "EO771 tumors [3]; listed as papaverine", "value": "1.9-2.8 fold"}, {"measurement": "effect of single dose of drug alone on tumor growth", "setting": "EO771 tumors [3]; orthotopic EO771, 2 mg/kg, no XRT", "value": "no significant effect"}, {"measurement": "response of mitochondria (OCR) to drug", "setting": "[5]", "value": "resistant"}, {"measurement": "ODD-luciferase reporter signal", "setting": "MP2 ODDluc tumors", "value": "significant decrease in signal"}]}]}
